# Data from the supplement of paper PMC10733146.
# Legend:
# Test in all cases: viability relative to DMSO control (fraction); higher = less drug effect (more viable cells)
# Settings in all cases: 48 h
# [1] = system: primary MCL patient cells (S063)
# Method in brief: (§1)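 Using 384-well plates with compounds already plated at five concentrations, one well per concentration, 4 × 10^4 primary mononuclear tumour cells were added per well. Cells were Ficoll-isolated from blood or bone marrow or came from processed lymph node, fresh or cryopreserved. They were kept for 48 h at 37 °C and 5% CO2 in RPMI-1640 supplemented with penicillin/streptomycin, L-glutamine and human serum, and viability was read as CellTiter-Glo luminescence relative to the median of 16 inner DMSO wells.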
# [2] = system: primary MCL patient cells (S068)
# Method in brief: as §1
# [3] = system: primary AML patient cells (S072)
# Method in brief: as §1
# [4] = system: primary MCL patient cells (S053)
# Method in brief: as §1
# [5] = system: primary ALL patient cells (S048)
# Method in brief: as §1
# [6] = system: primary AML patient cells (S025)
# Method in brief: as §1
# [7] = system: primary CLL patient cells (S043)
# Method in brief: as §1
# [8] = system: primary FL patient cells (S022)
# Method in brief: as §1
# [9] = system: primary AML patient cells (S021)
# Method in brief: as §1
# [10] = system: primary AML patient cells (S006)
# Method in brief: as §1
# [11] = system: primary AML patient cells (S079)
# Method in brief: as §1
# [12] = system: primary AML patient cells (S002)
# Method in brief: as §1
# [13] = system: primary AML patient cells (S012)
# Method in brief: as §1
# [14] = system: primary AML patient cells (S081)
# Method in brief: as §1
# [15] = system: primary T-PLL patient cells (S008)
# Method in brief: as §1
# [16] = system: primary BL patient cells (S005)
# Method in brief: as §1
# [17] = system: primary AML patient cells (S017)
# Method in brief: as §1
# [18] = system: primary AML patient cells (S055)
# Method in brief: as §1
# [19] = system: primary AML patient cells (S056)
# Method in brief: as §1
# [20] = system: primary AML patient cells (S009)
# Method in brief: as §1
smiles,measurement,setting,value
CC(C)c1cc(-c2n[nH]c(=O)n2-c2ccc3c(ccn3C)c2)c(O)cc1O [Ganetespib],viability,[1]; 0.0032 µM,1
same,viability,[1]; 0.016 µM,1.05
same,viability,[1]; 0.08 µM,0.136
same,viability,[1]; 0.4 µM,0.0898
same,viability,[1]; 2 µM,0.0823
same,viability,[2]; 0.0032 µM,1.02
same,viability,[2]; 0.016 µM,1.13
same,viability,[2]; 0.08 µM,0.532
same,viability,[2]; 0.4 µM,0.535
same,viability,[2]; 2 µM,0.545
same,viability,[3]; 0.0032 µM,1.01
same,viability,[3]; 0.016 µM,0.884
same,viability,[3]; 0.08 µM,0.412
same,viability,[3]; 0.4 µM,0.39
same,viability,[3]; 2 µM,0.377
same,viability,[4]; 0.0032 µM,0.941
same,viability,[4]; 0.016 µM,0.809
same,viability,[4]; 0.08 µM,0.326
same,viability,[4]; 0.4 µM,0.332
same,viability,[4]; 2 µM,0.325
same,viability,[5]; 0.0032 µM,0.9
same,viability,[5]; 0.016 µM,0.632
same,viability,[5]; 0.08 µM,0.517
same,viability,[5]; 0.4 µM,0.48
same,viability,[5]; 2 µM,0.453
same,viability,[6]; 0.0032 µM,0.936
same,viability,[6]; 0.016 µM,0.579
same,viability,[6]; 0.08 µM,0.343
same,viability,[6]; 0.4 µM,0.334
same,viability,[7]; 0.0032 µM,0.928
same,viability,[7]; 0.016 µM,0.917
same,viability,[7]; 0.08 µM,0.637
same,viability,[7]; 0.4 µM,0.535
same,viability,[7]; 2 µM,0.521
same,viability,[8]; 0.0032 µM,0.919
same,viability,[8]; 0.016 µM,0.865
same,viability,[8]; 0.08 µM,0.833
same,viability,[8]; 0.4 µM,0.764
same,viability,[8]; 2 µM,0.727
same,viability,[9]; 0.0032 µM,0.917
same,viability,[9]; 0.016 µM,0.742
same,viability,[9]; 0.08 µM,0.53
same,viability,[9]; 0.4 µM,0.637
same,viability,[9]; 2 µM,0.617
same,viability,[10]; 0.0032 µM,0.846
same,viability,[10]; 0.016 µM,0.154
same,viability,[10]; 0.08 µM,0.134
same,viability,[10]; 0.4 µM,0.198
same,viability,[10]; 2 µM,0.186
same,viability,[11]; 0.0032 µM,0.983
same,viability,[11]; 0.016 µM,0.825
same,viability,[11]; 0.08 µM,0.398
same,viability,[11]; 0.4 µM,0.352
same,viability,[11]; 2 µM,0.332
same,viability,[12]; 0.0032 µM,0.957
same,viability,[12]; 0.016 µM,0.414
same,viability,[12]; 0.08 µM,0.328
same,viability,[12]; 0.4 µM,0.326
same,viability,[12]; 2 µM,0.323
same,viability,[13]; 0.0032 µM,0.991
same,viability,[13]; 0.016 µM,0.964
same,viability,[13]; 0.08 µM,0.131
same,viability,[13]; 0.4 µM,0.126
same,viability,[13]; 2 µM,0.121
same,viability,[14]; 0.0032 µM,0.981
same,viability,[14]; 0.016 µM,0.674
same,viability,[14]; 0.08 µM,0.0862
same,viability,[14]; 0.4 µM,0.0773
same,viability,[14]; 2 µM,0.0742
same,viability,[15]; 0.0032 µM,0.937
same,viability,[15]; 0.016 µM,1
same,viability,[15]; 0.08 µM,0.939
same,viability,[15]; 0.4 µM,0.988
same,viability,[15]; 2 µM,0.961
same,viability,[16]; 0.0032 µM,0.871
same,viability,[16]; 0.016 µM,0.871
same,viability,[16]; 0.08 µM,0.637
same,viability,[16]; 0.4 µM,0.725
same,viability,[16]; 2 µM,0.716
same,viability,[17]; 0.0032 µM,1.07
same,viability,[17]; 0.016 µM,0.996
same,viability,[17]; 0.08 µM,0.371
same,viability,[17]; 0.4 µM,0.326
same,viability,[17]; 2 µM,0.31
same,viability,[18]; 0.0032 µM,0.976
same,viability,[18]; 0.016 µM,0.928
same,viability,[18]; 0.08 µM,0.403
same,viability,[18]; 0.4 µM,0.368
same,viability,[18]; 2 µM,0.337
same,viability,[19]; 0.0032 µM,0.705
same,viability,[19]; 0.016 µM,0.203
same,viability,[19]; 0.08 µM,0.137
same,viability,[19]; 0.4 µM,0.176
same,viability,[19]; 2 µM,0.169
same,viability,[20]; 0.0032 µM,0.953
same,viability,[20]; 0.016 µM,0.743
same,viability,[20]; 0.08 µM,0.542
same,viability,[20]; 0.4 µM,0.56
same,viability,[20]; 2 µM,0.567
CO[C@H]1C[C@@H]2CC[C@@H](C)[C@@](O)(O2)C(=O)C(=O)N2CCCC[C@H]2C(=O)O[C@H]([C@H](C)C[C@@H]2CC[C@@H](OC(=O)C(C)(CO)CO)[C@H](OC)C2)CC(=O)[C@H](C)/C=C(\C)[C@@H](O)[C@@H](OC)C(=O)[C@H](C)C[C@H](C)/C=C/C=C/C=C/1C [Temsirolimus],viability,[1]; 0.032 µM,0.913
same,viability,[1]; 0.16 µM,0.892
same,viability,[1]; 0.8 µM,0.9
same,viability,[1]; 4 µM,0.946
same,viability,[1]; 20 µM,0.843
same,viability,[2]; 0.032 µM,0.604
same,viability,[2]; 0.16 µM,0.614
same,viability,[2]; 0.8 µM,0.608
same,viability,[2]; 4 µM,0.738
same,viability,[2]; 20 µM,1.01
same,viability,[3]; 0.032 µM,0.733
same,viability,[3]; 0.16 µM,0.886
same,viability,[3]; 0.8 µM,0.704
same,viability,[3]; 4 µM,0.728
same,viability,[3]; 20 µM,0.604
same,viability,[4]; 0.032 µM,0.884
same,viability,[4]; 0.16 µM,0.879
same,viability,[4]; 0.8 µM,0.927
same,viability,[4]; 4 µM,0.898
same,viability,[4]; 20 µM,0.755
same,viability,[5]; 0.032 µM,0.747
same,viability,[5]; 0.16 µM,0.706
same,viability,[5]; 0.8 µM,0.702
same,viability,[5]; 4 µM,0.748
same,viability,[5]; 20 µM,0.49
same,viability,[6]; 0.032 µM,0.914
same,viability,[6]; 0.16 µM,0.962
same,viability,[6]; 0.8 µM,0.883
same,viability,[6]; 4 µM,0.893
same,viability,[6]; 20 µM,0.754
same,viability,[7]; 0.032 µM,0.749
same,viability,[7]; 0.16 µM,0.745
same,viability,[7]; 0.8 µM,0.738
same,viability,[7]; 4 µM,0.733
same,viability,[7]; 20 µM,0.692
same,viability,[8]; 0.032 µM,0.962
same,viability,[8]; 0.16 µM,0.821
same,viability,[8]; 0.8 µM,0.966
same,viability,[8]; 4 µM,0.917
same,viability,[8]; 20 µM,0.569
same,viability,[9]; 0.032 µM,0.761
same,viability,[9]; 0.16 µM,0.846
same,viability,[9]; 0.8 µM,0.818
same,viability,[9]; 4 µM,0.737
same,viability,[9]; 20 µM,0.605
same,viability,[10]; 0.032 µM,0.824
same,viability,[10]; 0.16 µM,0.746
same,viability,[10]; 0.8 µM,0.709
same,viability,[10]; 4 µM,0.65
same,viability,[10]; 20 µM,0.415
same,viability,[11]; 0.032 µM,0.764
same,viability,[11]; 0.16 µM,0.771
same,viability,[11]; 0.8 µM,0.768
same,viability,[11]; 4 µM,0.755
same,viability,[11]; 20 µM,0.675
same,viability,[12]; 0.032 µM,0.755
same,viability,[12]; 0.16 µM,0.706
same,viability,[12]; 0.8 µM,0.702
same,viability,[12]; 4 µM,0.62
same,viability,[12]; 20 µM,0.44
same,viability,[13]; 0.032 µM,0.814
same,viability,[13]; 0.16 µM,0.732
same,viability,[13]; 0.8 µM,0.85
same,viability,[13]; 4 µM,0.845
same,viability,[13]; 20 µM,0.702
same,viability,[14]; 0.032 µM,0.885
same,viability,[14]; 0.16 µM,0.884
same,viability,[14]; 0.8 µM,0.926
same,viability,[14]; 4 µM,0.969
same,viability,[14]; 20 µM,0.869
same,viability,[15]; 0.032 µM,0.982
same,viability,[15]; 0.16 µM,0.958
same,viability,[15]; 0.8 µM,0.941
same,viability,[15]; 4 µM,0.959
same,viability,[15]; 20 µM,0.878
same,viability,[16]; 0.032 µM,0.775
same,viability,[16]; 0.16 µM,0.707
same,viability,[16]; 0.8 µM,0.784
same,viability,[16]; 4 µM,0.775
same,viability,[16]; 20 µM,0.653
same,viability,[17]; 0.032 µM,0.724
same,viability,[17]; 0.16 µM,0.765
same,viability,[17]; 0.8 µM,0.739
same,viability,[17]; 4 µM,0.727
same,viability,[17]; 20 µM,0.634
same,viability,[18]; 0.032 µM,0.919
same,viability,[18]; 0.16 µM,0.959
same,viability,[18]; 0.8 µM,0.957
same,viability,[18]; 4 µM,0.955
same,viability,[18]; 20 µM,0.812
same,viability,[19]; 0.032 µM,0.606
same,viability,[19]; 0.16 µM,0.789
same,viability,[19]; 0.8 µM,0.847
same,viability,[19]; 4 µM,0.735
same,viability,[19]; 20 µM,0.425
same,viability,[20]; 0.032 µM,0.92
same,viability,[20]; 0.16 µM,0.774
same,viability,[20]; 0.8 µM,0.846
same,viability,[20]; 4 µM,0.769
same,viability,[20]; 20 µM,0.533
